The nature of one data set: Lung S9 metabolism. Format: in vitro ADME, human. The following applies: for Compound Remaining at 60 min (%) / microsomal CLint at 1 µM: human lung S9, 1 μM compound, 1 mg/mL S9 protein; for Sulfate Appearance: human lung S9, qualitative O-sulfate metabolite peak; for microsomal CLint at 1 µM: human lung S9 fraction, pH 7.4, NADPH and PAPS, read-out: Clearance. The procedure: The time 0, 15, 30, and 60 minute samples were analyzed for parent compound by high resolution LC-MS/MS. Lung S9 fractions from human (lot 1410245) were purchased from XenoTech LLC (Lenexa, Kans.). NADPH (Sigma Aldrich, N1630) and 3-phosphoadenosine 5-phosphosulfate (PAPS) (Sigma Aldrich, A1651) were purchased from Sigma Aldrich (St. Louis, Mo.). Acetonitrile and water were obtained from VWR (Radnor, Pa.) and were of HPLC grade or better. Raloxifene and formic acid was purchased from Sigma Aldrich (St. Louis, Mo.). Lung S9 incubations were performed in a water bath at 37° C. in a 96-well polypropylene plate. […] Louis, Mo.), 3 mM magnesium chloride (Sigma Aldrich, M1028) and in the presence of 100 μM PAPS (Sigma-Aldrich, St. […] Incubation volumes consisted of 400 μL and time points were taken at 0, 15, 30, and 60 minutes by the removal of a 70 μL aliquot and dilution into 140 μL acetonitrile (0% formic acid). All samples were centrifuged at 2250 g for 10 minutes at 5° C. Supernatant […] was taken from the centrifuged samples and diluted into 100 μL HPLC water containing internal standard. The samples were run on a Dionex Ultimate 3000 Auto sampler and analyzed using a Thermo Q-Exactive High Resolution Mass Spectrometer (Thermo, Waltham, Mass.) in Full Scan mode in conjunction with an Atlantis T3 column 3 μM-2.1×50 mm (Waters Inc., 186003717). Mobile Phase A consisted of Water+0.2% formic acid and Mobile Phase B consisted of acetonitrile +0.2% formic acid. Peak integration was accomplished using Gubbs GMSU software (Gubbs Inc., Alpharetta, Ga.). For each sample, peak area ratios were calculated by dividing the analyte peak area by the internal standard peak area. For each incubation, the peak area ratios of the analytes in each t0 was set to 100%, and the peak areas ratios from the 60 minute samples were converted to percentages remaining relative to the corresponding t0. Determination of sulfate metabolite formation was made qualitatively by observation of early-eluting peak in the parent ion channel which, based on historical internal data, corresponded to the O-sulfate metabolite of each parent compound.

Another data set deals with JAK3 (Homo sapiens (Human), UniProt P52333). The data set is described as follows: Biochemical JAK kinase assay (LanthaScreen), JAK3. The protocol: (§1) Recombinant GST-tagged JAK enzymes and a GFP-tagged STAT1 peptide substrate were obtained from Life Technologies. Serially diluted compounds were pre-incubated with each of the four JAK enzymes and the substrate in white 384-well microplates (Corning) at ambient temperature for 1 h. ATP was subsequently added to initiate the kinase reactions in 10 μL total volume, with 1% DMSO. […] Kinase reactions were allowed to proceed for 1 hour at ambient temperature before a 10 μL preparation of EDTA (10 mM final concentration) and Tb-anti-pSTAT1 ([…]) antibody (Life Technologies, 2 nM final concentration) in TR-FRET dilution buffer (Life Technologies) was added. The plates were allowed to incubate at ambient temperature for 1 h before being read on the EnVision reader (Perkin Elmer). Emission ratio signals (520 nm/495 nm) were recorded and utilized to calculate the percent inhibition values based on DMSO and background controls. For dose-response analysis, percent inhibition data were plotted vs. compound concentrations, and IC50 values were determined from a 4-parameter robust fit model with the Prism software (GraphPad Software). Results were expressed as pIC50 (negative logarithm of IC50) and subsequently converted to pKi (negative logarithm of dissociation constant, Ki) using the Cheng-Prusoff equation.

A further data set addresses JAK2 (Homo sapiens (Human), UniProt O60674). The data set is described as follows: Biochemical JAK kinase assay (LanthaScreen), JAK2. The protocol: as §1, with “equation. Test compounds having a lower Ki value or higher pKi value in the four JAK assays show greater inhibition of JAK activity.” for “equation.”
On the technique in general: Time-resolved FRET reads energy transfer from a long-lived donor to a nearby acceptor.

The target in another data set is Tyk2 (Homo sapiens (Human), UniProt P29597). The data set is described as follows: Biochemical JAK kinase assay (LanthaScreen), Tyk2. The procedure:
as §1

In data set [1] the test system is IL-2 stimulated pSTAT5 in Tall-1 T cells. The data set is described as follows: Inhibition of IL-2 stimulated pSTAT5 in Tall-1 T cells. In kind it is cell-based. The following applies: IL-2 stimulated pSTAT5, Tall-1 human T cell line; read-out: Tall-1 pIC50 (converted). The procedure: The potency of test compounds for inhibition of interleukin-2 (IL-2) stimulated STAT5 phosphorylation was measured in the Tall-1 human T cell line (DSMZ) using AlphaLisa. Because IL-2 signals through JAK1/3, this assay provides a measure of JAK1/3 cellular potency.
Phosphorylated STAT5 was measured via the AlphaLISA SureFire Ultra pSTAT5 (Tyr694/699) kit (PerkinElmer).
Human T cells from the Tall-1 cell line were cultured in a 37° C., 5% CO2 humidified incubator in RPMI (Life Technologies) supplemented with 15% Heat Inactivated Fetal Bovine Serum (FBS, Life Technologies), 2 mM Glutamax (Life Technologies), 25 mM HEPES (Life Technologies) and 1× Pen/Strep (Life Technologies). Compounds were serially diluted in DMSO and dispensed acoustically to empty wells. Assay media (phenol red-free DMEM (Life Technologies) supplemented with 10% FBS (ATCC)) was dispensed (4 μL/well) and plates shaken at 900 rpm for 10 mins. Cells were seeded at 45,000 cells/well in assay media (4 μL/well), and incubated at 37° C., 5% CO2 for 1 hour, followed by the addition of IL-2 (R&D Systems; final concentration 300 ng/mL) in pre-warmed assay media (4 μL) for 30 minutes. After cytokine stimulation, cells were lysed with 6 ul of 3× AlphaLisa Lysis Buffer (PerkinElmer) containing 1× PhosStop and Complete tablets (Roche). The lysate was shaken at 900 rpm for 10 minutes at room temperature (RT). Phosphorylated STAT5 was measured via the pSTAT5 AlphaLisa kit (PerkinElmer). Freshly prepared acceptor bead mixture was dispensed onto lysate (5 μL) under green filtered <100 lux light. Plates were shaken at 900 rpm for 2 mins, briefly spun down, and incubated for 2 hrs at RT in the dark. Donor beads were dispensed (5 μL) under green filtered <100 lux light. Plates were shaken at 900 rpm for 2 minutes, briefly spun down, and incubated overnight at RT in the dark. Luminescence was measured with excitation at 689 nm and emission at 570 nm using an EnVision plate reader (PerkinElmer) under green filtered <100 lux light.
To determine the inhibitory potency of test compounds in response to IL-2, the average emission intensity of beads bound to pSTAT5 was measured in a human T cell line. IC50 values were determined from analysis of the inhibition curves of signal intensity versus compound concentration. Data are expressed as pIC50 (negative decadic logarithm IC50) values (mean±standard deviation).

The next data set concerns the target JAK1 (Homo sapiens (Human), UniProt P23458). The data set is described as follows: Biochemical JAK kinase assay (LanthaScreen), JAK1. The procedure: as §1

Sequence of JAK2 (O60674 whole entry): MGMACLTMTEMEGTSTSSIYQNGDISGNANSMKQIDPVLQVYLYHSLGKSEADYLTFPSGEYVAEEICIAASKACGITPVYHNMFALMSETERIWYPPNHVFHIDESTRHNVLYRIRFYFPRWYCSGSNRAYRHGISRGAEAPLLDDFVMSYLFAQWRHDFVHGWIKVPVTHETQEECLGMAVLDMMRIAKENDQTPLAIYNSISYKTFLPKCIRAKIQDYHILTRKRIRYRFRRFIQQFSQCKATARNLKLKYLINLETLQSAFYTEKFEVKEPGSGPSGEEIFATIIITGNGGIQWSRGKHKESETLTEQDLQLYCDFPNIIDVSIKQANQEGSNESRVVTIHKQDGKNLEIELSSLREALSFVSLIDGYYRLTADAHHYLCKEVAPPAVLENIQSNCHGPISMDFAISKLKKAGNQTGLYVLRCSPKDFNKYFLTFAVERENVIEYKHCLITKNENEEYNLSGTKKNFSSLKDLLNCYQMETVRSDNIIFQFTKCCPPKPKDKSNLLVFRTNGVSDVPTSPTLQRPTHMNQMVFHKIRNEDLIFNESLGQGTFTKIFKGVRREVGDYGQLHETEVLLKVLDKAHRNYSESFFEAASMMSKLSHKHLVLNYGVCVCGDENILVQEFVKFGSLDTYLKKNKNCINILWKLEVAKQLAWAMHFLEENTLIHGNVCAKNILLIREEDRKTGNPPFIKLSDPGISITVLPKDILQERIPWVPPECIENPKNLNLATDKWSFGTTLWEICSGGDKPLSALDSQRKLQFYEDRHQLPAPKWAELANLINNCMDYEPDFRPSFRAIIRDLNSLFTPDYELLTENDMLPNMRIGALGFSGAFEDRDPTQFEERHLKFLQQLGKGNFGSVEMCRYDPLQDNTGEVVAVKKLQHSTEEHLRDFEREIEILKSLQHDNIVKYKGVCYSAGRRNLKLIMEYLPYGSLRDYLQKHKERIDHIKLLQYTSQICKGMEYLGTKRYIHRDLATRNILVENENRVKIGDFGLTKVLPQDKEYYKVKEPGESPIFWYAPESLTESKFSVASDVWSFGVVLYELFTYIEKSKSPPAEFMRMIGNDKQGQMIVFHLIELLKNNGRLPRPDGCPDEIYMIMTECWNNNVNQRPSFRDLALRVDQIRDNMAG
Sequence of JAK3 (P52333 whole entry): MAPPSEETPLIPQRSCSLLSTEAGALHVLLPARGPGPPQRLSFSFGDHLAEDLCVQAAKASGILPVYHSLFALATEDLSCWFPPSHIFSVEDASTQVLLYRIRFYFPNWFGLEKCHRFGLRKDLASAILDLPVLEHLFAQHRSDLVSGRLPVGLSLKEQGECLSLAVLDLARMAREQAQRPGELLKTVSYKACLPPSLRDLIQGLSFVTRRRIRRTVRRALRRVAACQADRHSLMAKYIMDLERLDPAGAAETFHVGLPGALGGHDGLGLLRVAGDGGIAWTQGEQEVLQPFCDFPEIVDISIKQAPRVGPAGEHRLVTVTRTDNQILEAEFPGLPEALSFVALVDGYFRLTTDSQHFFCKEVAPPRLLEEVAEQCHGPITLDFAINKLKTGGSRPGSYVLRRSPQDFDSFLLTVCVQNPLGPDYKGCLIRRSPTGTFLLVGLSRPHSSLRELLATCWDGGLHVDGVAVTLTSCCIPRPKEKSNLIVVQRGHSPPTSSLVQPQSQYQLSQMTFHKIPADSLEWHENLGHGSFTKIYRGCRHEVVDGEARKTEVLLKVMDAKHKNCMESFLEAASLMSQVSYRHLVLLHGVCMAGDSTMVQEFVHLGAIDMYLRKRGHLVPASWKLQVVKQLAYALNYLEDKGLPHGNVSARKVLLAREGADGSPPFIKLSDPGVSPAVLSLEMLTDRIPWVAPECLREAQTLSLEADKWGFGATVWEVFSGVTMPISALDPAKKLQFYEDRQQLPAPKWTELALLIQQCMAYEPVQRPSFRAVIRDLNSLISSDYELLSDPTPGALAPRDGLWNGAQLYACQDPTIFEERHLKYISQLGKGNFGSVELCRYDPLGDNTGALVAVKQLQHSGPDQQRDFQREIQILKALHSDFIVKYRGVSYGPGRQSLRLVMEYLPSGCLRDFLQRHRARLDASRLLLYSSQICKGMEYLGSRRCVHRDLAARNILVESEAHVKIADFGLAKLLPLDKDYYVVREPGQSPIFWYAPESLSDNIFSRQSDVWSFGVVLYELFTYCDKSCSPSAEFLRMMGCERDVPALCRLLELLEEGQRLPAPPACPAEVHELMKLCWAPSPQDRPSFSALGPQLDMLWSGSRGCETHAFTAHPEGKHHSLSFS
Sequence of Tyk2 (P29597 whole entry): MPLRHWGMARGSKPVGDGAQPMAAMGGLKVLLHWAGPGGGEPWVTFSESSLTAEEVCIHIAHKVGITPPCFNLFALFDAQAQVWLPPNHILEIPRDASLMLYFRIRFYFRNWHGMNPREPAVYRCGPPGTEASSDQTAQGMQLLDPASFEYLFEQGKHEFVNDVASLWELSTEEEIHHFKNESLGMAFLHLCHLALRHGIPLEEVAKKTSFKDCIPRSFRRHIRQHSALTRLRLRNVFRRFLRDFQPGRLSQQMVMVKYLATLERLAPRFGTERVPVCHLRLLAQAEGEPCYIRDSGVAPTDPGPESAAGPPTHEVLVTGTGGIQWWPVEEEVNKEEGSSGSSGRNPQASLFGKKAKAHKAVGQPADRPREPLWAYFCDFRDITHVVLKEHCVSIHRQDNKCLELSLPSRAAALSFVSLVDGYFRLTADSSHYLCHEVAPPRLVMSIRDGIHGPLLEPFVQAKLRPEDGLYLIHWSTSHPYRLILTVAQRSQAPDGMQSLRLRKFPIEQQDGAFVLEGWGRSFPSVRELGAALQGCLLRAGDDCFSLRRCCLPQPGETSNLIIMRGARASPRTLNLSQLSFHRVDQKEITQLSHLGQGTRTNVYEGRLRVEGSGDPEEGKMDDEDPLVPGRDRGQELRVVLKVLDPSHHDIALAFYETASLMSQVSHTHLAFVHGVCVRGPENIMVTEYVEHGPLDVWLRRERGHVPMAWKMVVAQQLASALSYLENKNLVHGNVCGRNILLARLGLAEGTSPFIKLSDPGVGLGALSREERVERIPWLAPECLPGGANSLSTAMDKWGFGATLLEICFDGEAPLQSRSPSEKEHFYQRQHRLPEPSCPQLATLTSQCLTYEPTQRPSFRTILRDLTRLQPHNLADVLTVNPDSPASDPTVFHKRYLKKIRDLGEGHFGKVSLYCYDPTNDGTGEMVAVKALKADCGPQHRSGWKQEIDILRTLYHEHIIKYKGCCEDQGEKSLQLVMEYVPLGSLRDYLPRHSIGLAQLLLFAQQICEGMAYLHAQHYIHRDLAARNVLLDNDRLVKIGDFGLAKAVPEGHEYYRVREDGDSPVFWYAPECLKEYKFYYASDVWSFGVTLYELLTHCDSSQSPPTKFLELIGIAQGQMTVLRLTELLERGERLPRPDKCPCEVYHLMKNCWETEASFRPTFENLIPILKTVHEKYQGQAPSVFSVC
Sequence of JAK1 (P23458 whole entry): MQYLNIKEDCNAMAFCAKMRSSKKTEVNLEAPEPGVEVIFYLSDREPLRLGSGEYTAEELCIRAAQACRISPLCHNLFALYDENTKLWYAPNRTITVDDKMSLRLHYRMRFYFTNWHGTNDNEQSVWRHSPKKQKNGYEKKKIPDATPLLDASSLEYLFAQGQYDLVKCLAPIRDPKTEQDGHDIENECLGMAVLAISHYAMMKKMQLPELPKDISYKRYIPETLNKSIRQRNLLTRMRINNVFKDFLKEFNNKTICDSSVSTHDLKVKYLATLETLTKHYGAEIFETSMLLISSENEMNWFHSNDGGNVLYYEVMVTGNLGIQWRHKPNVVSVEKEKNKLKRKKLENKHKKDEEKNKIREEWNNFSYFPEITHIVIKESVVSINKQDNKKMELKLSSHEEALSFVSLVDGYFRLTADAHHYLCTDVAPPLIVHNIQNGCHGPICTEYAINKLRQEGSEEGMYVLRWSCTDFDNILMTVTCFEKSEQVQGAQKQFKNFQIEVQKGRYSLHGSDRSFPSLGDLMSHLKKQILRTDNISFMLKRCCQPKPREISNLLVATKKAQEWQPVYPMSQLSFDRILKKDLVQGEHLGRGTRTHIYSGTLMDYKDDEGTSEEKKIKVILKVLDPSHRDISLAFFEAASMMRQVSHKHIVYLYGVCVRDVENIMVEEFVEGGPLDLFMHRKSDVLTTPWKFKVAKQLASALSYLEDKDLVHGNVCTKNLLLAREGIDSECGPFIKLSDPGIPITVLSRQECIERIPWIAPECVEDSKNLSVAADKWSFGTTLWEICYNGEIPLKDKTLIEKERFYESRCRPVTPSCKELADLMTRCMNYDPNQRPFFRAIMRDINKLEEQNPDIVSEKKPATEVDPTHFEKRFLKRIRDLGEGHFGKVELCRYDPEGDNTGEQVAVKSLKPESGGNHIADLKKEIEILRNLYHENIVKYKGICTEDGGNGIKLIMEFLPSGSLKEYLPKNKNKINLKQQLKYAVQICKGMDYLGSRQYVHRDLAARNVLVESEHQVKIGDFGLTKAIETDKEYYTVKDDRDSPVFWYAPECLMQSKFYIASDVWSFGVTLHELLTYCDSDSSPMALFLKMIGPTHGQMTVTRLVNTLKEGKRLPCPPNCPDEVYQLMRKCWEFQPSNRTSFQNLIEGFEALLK

Consider `CCc1cc(O)c(F)cc1-c1ccc2c(-c3nc4c([nH]3)CN(CC)[C@H](C(=O)N3CC(N(C)C)C3)C4)n[nH]c2c1` [Compound C-2, (S)-(3-(dimethylamino)azetidin-1-yl)(5-ethyl-2-(6-(2-ethyl-5-fluoro-4-hydroxyphenyl)-1H-indazol-3-yl)-4,5,6,7-tetrahydro-3H-imidazo[4,5-c]pyridin-6-yl)methanone], for which, in “Lung S9 metabolism”, the “Compound Remaining at 60 min (%)” value is reported as 6%, the “Sulfate Appearance” value is reported as “Yes” and the microsomal CLint at 1 µM came out at 46.7 µL/min/mg. Also, the “JAK3 pKi” value on JAK3 is 9.5. Further, the “JAK2 pKi” value at JAK2 is listed as 10.9. On Tyk2, the “Tyk2 pKi” value amounted to 9.4. Also, the IC50 in data set [1] is 2 nM.

For `CCCN1Cc2[nH]c(-c3n[nH]c4cc(-c5cc(F)c(O)cc5CC)ccc34)nc2C[C@H]1C(=O)N1CC(N(C)C)C1` [Compound C-5, (S)-(3-(dimethylamino)azetidin-1-yl)(2-(6-(2-ethyl-5-fluoro-4-hydroxyphenyl)-1H-indazol-3-yl)-5-propyl-4,5,6,7-tetrahydro-3H-imidazo[4,5-c]pyridin-6-yl)methanone], in the data set “Lung S9 metabolism”, the “Compound Remaining at 60 min (%)” value amounted to 5%, the “Sulfate Appearance” value is listed as “Yes” and the microsomal CLint at 1 µM came to 50.5 µL/min/mg. At JAK3, the “JAK3 pKi” value was 10.0. For the same compound, the “JAK2 pKi” value at JAK2 came to 10.8. Moreover, the “JAK1 pKi” value at JAK1 is 10.1. Further, the “Tyk2 pKi” value on Tyk2 was determined as 9.4. Also, the IC50 in data set [1] was 2 nM.

On to `CCc1cc(O)c(F)cc1-c1ccc2c(-c3nc4c([nH]3)CN(C(C)C)[C@H](C(=O)N3CC(C)(N(C)C)C3)C4)n[nH]c2c1` [Compound C-4, (S)-(3-(dimethylamino)-3-methylazetidin-1-yl)(2-(6-(2-ethyl-5-fluoro-4-hydroxyphenyl)-1H-indazol-3-yl)-5-isopropyl-4,5,6,7-tetrahydro-3H-imidazo[4,5-c]pyridin-6-yl)methanone], for which, in “Lung S9 metabolism”, the “Compound Remaining at 60 min (%)” value was found to be 4%, the “Sulfate Appearance” value was “Yes” and the microsomal CLint at 1 µM is 53.2 µL/min/mg. For the same compound, at JAK2 (read-out: JAK2 pKi (converted)), the Ki was 0.0126 nM. Also, the Ki at JAK1 (read-out: JAK1 pKi (converted)) is 0.0794 nM. Further, the IC50 in data set [1] was 2.51 nM.

Values taken from patent US10947229B2, “Dimethyl amino azetidine amides as JAK inhibitors” (THERAVANCE BIOPHARMA R&D IP, LLC, priority 2018, dated 2021).
